Results from patent US20200390902A1, “Antibody-Drug Conjugates Targeted at Human Aspartyl-(Asparaginyl)-B-Hydroxylase (HAAH)” (Panacea Pharmaceuticals, Inc., priority 2017, published 2020).

What was measured:
H460 cells = experiment: Cell morphology by phase contrast microscope, H460; assay type: cell-based, human; conditions: H460, 32 nM, 72 hours
Method: Both cell lines were cultured in HG-DMEM (ThermoFisher Scientific Catalog No. 11965-092) supplemented with 20 mM HEPES (4-(2-hydroxyethyl)-1-piperazineethanesulfonic acid), 4 mM L-glutamine, 1 mM sodium pyruvate, 1× non-essential amino acids, 50 μg/ml gentamicin and 10% fetal bovine serum (FBS). H460 and NHLF cells were seeded into 96-well plates at 5,000 cells per well, following a 2-day FBS deprivation, and released by culture in complete culture medium containing 10% FBS. […] By 72 hours post treatment, cell death was determined by observing cell morphology using a phase contrast microscope at 150×.

MIA-PaCa-2 ASPH cells = experiment: MTS cytotoxicity assay, MIA-PaCa-2 ASPH; assay type: cell-based, human; conditions: 10-50 nM, 48 hours
Method: The in vitro specificity of SNS622-MC-DM1 was also examined using the human pancreas cell line MIA-PaCa-2 ASPH. This cell line has a high level expression of ASPH. MIA-PaCa-2 cells were seeded at a density of 2,000 cells/well and cultured in high-glucose (25 mM D-glucose) Dulbecco's Modified Eagle's Medium (DMEM) with 10% FBS at 37° C. in a humidified atmosphere containing 5% CO2. The cells were treated with 10 nM IgG1-MC-DM1, 20 nM IgG1-MC-DM1, 50 nM IgG1-MC-DM1, 10 nM SNS622-MC-DM1, 20 nM SNS622-MC-DM1, or 50 nM SNS622-MC-DM1 for 48 hours. IgG1-MC-DM1 is a control ADC obtained from Goodwin Biotechnology, having catalog No. DAGIC1194, The cytotoxicity of the ADCs was measured using an MTS assay kit (Promega, Catalog No, G3582). After treatment for 1 hour with the MTS solution, absorbance was measured using a microplate reader at a 490 nm wavelength, with a reference at 690 nm.

[1] = tested on: pancreatic ductular adenocarcinoma (PDAC) xenograft; experiment: Patient-derived xenograft (PDx) model of PDAC, primary tumor growth; assay type: in vivo, mouse; conditions: 2.5 mg/kg i.v., by day 35, vs SNS622 or non-treated control
From the text: (§1) Pancreatic ductular adenocarcinoma (PDAC) is a highly lethal malignancy with limited treatment options. HAAH is a cell surface protein that is highly expressed in […] of PDACs. The specificity of SNS622-MC-DM1 was next examined in the patient-derived xenograft (PDx) mouse model PDAC. The patient-derived xenograft (PDx) murine model was established by using surgically resected PDAC (from Rhode Island Hospital, Providence, R.I., U.S.A.). Five to six-week-old female Nod Scid Gamma (NSG) mice were employed. The surgically resected tumor tissue was diced into 5×5×5 mm^3 pieces, and a piece of tumor tissue was subcutaneously transplanted under anesthesia with isoflurane into each mouse via a small incision in the lower back, A buprenorphine analgesic was injected to each mouse for 3 days after surgery. The SNS622 antibody or the SNS622-MC-DM1 ADC was administered at a dose of 2.5 mg/kg by intravenous tail-vein injection every two weeks starting at day 17 post-surgery. Body weight and tumor size were measured twice a week and tumor volume was calculated using the modified ellipsoid formula (0.5×length×width^2). To determine the effect of SNS622-MC-DM1 on lung metastasis, all lung tissues were immersed in Bouin's fixative solution (Sigma-Aldrich, St. Louis, Mo., U.S.A.; catalog No, HT10132) and metastatic nodules on the surface of the lungs were counted. […]

[2] = tested on: metastatic nodules in the lungs (PDAC PDx); experiment: PDx model of PDAC, lung metastasis; assay type: in vivo, mouse; conditions: 1.9 mg/kg, after 6 weeks of administration
From the text: as §1, with “The surgically resected tumor tissue was diced into 5×5×5 mm^3 pieces, and a piece of tumor tissue was subcutaneously transplanted under anesthesia with isoflurane into each mouse via a small incision in the lower back, A buprenorphine analgesic was injected to each mouse for 3 days after surgery. The SNS622 antibody or the SNS622-MC-DM1 ADC was administered at a dose of 2.5 mg/kg by intravenous tail-vein injection every two weeks starting at day 17 post-surgery.” left out
This phenotype was maintained in the PDx model of NSG mouse. […] In this context, dose and period of administration of PAN-622 or SNS622-MC-DM1 for treatment of NSG mice was reduced to 1.9 mg/kg and the development and growth of metastatic nodules in the lungs after the treatment was assessed After 6 weeks of administration, the number of macroscopic metastatic nodules on the lung surface was determined.

SNS622-MC-DM1: SNS622 anti-HAAH monoclonal antibody conjugated to mertansine (DM1) by the non-cleavable linker maleimidocaproyl (MC)
Cell density (morphology) (H460 cells): reduction of cell density
Reduction of relative absorbance (MTS) (MIA-PaCa-2 ASPH cells): about 16%
PDAC tumor growth [1]: significantly reduced PDAC tumor growth
Mean number of nodules per animal [2]: 3.25
Total number of metastatic nodules in group [2]: approximately 35
